The conditions of data set [1]: intravenous, rats (Nunes et al., 2003); cited from earlier work.
The nature of data set [2]: FDP levels in blood, brain and peripheral tissues after intraperitoneal administration. Type of data set: in vivo, Sprague-Dawley rats. The procedure:
Adult male Sprague-Dawley rats (170-220 g) were used to determine the kinetics of fructose-1,6-diphosphate (FDP). Levels of FDP were determined in blood and tissue samples as previously described (Gerhard, Methods of Enzymatic Analysis, Vol VI, Ed. Bergmeyer, H U, Academic Press NY, pp. 342-350). All chemicals and enzymes for the assay were obtained from Sigma Chemical Co (St. Louis Mo.). Animals were administered a single dose of 0.5 g kg-1 FDP (250 mg ml-1 dissolved in 0.1M phosphate buffered saline, pH 7). In vivo studies utilized the dicalcium salt of FDP, which has a purity of ˜70%. […] At the designated time, animals were anesthetized with 1 g kg-1 urethane. After deep anesthesia, whole blood was obtained from a cardiac puncture. One ml of whole blood was added to 5 ml of perchloric acid ([…]) and mixed. After centrifugation at 3,500 rev min-1 for 10 min at 4° C., the supernatant was removed and set aside. The sediment was re-suspended in 1 ml of the perchloric acid solution and 1 ml of distilled water and centrifuged. The resulting supernatant was combined with the first one and the pH was adjusted to 3.5 with potassium carbonate (5 mol l-1). The final volume was brought to 7 ml and the solution was allowed to sit in ice for 15 min. The supernatant was used for determination of FDP levels.
Immediately after removal of the whole blood sample, the rat was perfused through the heart with ice-cold 0.01M phosphate buffered saline. Tissue samples from liver, kidney, skeletal muscle (from thigh) and intra-abdominal fat were obtained and then the brain was removed and dissected into hippocampus, cerebral cortex, cerebellum and rest of brain. […] All tissue samples were weighed and then homogenized in 5 ml of ice-cold perchloric acid (0.6 mol l-1) as quickly as possible. The homogenates were then treated was described above for whole blood.
Actual levels of FDP were determined by monitoring absorbance of reduced nicotinamide adenine dinucleotide (NADH) and treating the sample with aldolase (EC 4.1.2.13, 45 units mg-1 diluted 1:27 with distilled water), the enzyme which cleaves FDP into dihydroxyacetone phosphate (DAP) and D-glyceraldehyde 3-phosphate (GAP). DAP and GAP are interconverted by the enzyme triosephosphate isomerase (TIM, EC 5.3.3.1, 5290 units mg-1 diluted 1:120 with distilled water). Glycerol-3-phosphate dehydrogenase (GDH, EC 1.1.1.8, 252 units mg-1 diluted 1:100 with distilled water) catalyzes the reduction of DAP by NADH. For the FDP measurements, 1.5 ml of tetraethyl ammonium buffer (TEA, 0.4 mol l-1, pH 7.6 with EDTA 40 mmol l-1) was added to 1 ml of the sample in a 4 ml cuvette. Then 0.1 ml of 5 mmol l-1 β-NADH, 0.4 ml of distilled water and 0.01 ml of the enzymes TIM and GDH were added and the cuvette inverted to mix the solutions. After 5 min the absorbance was read 3 times at 340 nm, each reading 3 min apart. The average of these readings is the initial absorbance (Ai). This step removes any DAP or GAP in the sample and determines the baseline absorbance. Aldolase (0.01 ml) was then added and mixed to cleave FDP into DAP and GAP. Nine minutes after addition of the aldolase, the final absorbance (Af) was determined by 3 readings at 340 nm, each 6 minutes apart. The concentration of FDP in the sample was proportional to the difference in the initial and final absorbance. Two moles of NADH are oxidized for each mole of FDP. Blanks and a FDP standard sample were run in parallel with every assay. Each blank had 1.6 ml of the TEA buffer, 1.4 ml water and the mixture of TIM and GDH. For the positive control, the sample was replaced with 1 ml of a solution containing 200 μg FDP per ml of phosphate buffered saline. The trisodium salt of FDP, with a purity of >98%, was utilized for all of the positive control samples and for the standard curves. Levels of FDP in blood were determined per ml, while levels in tissue samples were determined as a function of tissue weight. […]

Turning to `O=C(COP(=O)(O)O)[C@@H](O)[C@H](O)[C@H](O)COP(=O)(O)O` [F1,6BP, Fructose-1,6-bisphosphate], in data set [1], the LD50 was 1,068 mg/kg. In data set [2] (0.5 g kg-1 ip), the “FDP level in the brain at 12 hours vs levels at 1 and 2 hours” value is “not significantly different”; the “time of peak FDP levels in blood” value was found to be 2 h; the “time of peak FDP levels in the brain” value is 1 to 2 h. Besides, the “FDP levels in blood vs control” value in data set [2] (0.5 g kg-1 ip, 1 hour) was “significant increase”. Further, in data set [2] (0.5 g kg-1 ip, 12 hours), the “FDP level in blood compared to control values” was “significantly elevated”; the “FDP level in blood compared to the peak levels at 2 hours” value is recorded as “significantly decreased”; the “FDP levels in liver, kidney, muscle and fat” value is on record as “returned to near baseline”. In data set [2] (0.5 g kg-1 ip, 36 hours), the “FDP levels in the brain vs control” value is given as “remained significantly elevated”. Further, the “FDP levels in blood” value in data set [2] (0.5 g kg-1 ip, by 6 hours) was “fallen more than halfway back to baseline”. The “increase in FDP at 1 hour, all tissues measured” value in data set [2] (0.5 g kg-1 ip, liver, kidney, skeletal muscle and fat, n=6) is listed as “around 0.2 mg g-1”. Besides, in data set [2] (0.5 g kg-1 ip, n=6), the “increase in FDP at 1 hour, kidney” value stood at 0.26 mg/g; the “increase in FDP at 1 hour, liver” value stood at 0.17 mg/g; the “increase in FDP at 1 hour, muscle” value was found to be 0.17 mg/g. Moreover, in data set [2] (single dose 0.5 g kg-1 ip), the “time at which an increase of FDP levels in blood was first seen” value amounted to 30 min and the “time out to which FDP levels in blood remained elevated” value was 72 h.

Source of the values: patent publication US20100197610A1, “FRUCTOSE 1, 6 BISPHOSPHATE - A NOVEL ANTICONVULSANT DRUG” (Baylor College of Medicine, priority 2007, published 2010).
